The text below walks through data of ChEMBL document CHEMBL1142129, “Effect of carbapenem administration on establishment of intestinal colonization by vancomycin-resistant enterococci and Klebsiella pneumoniae in mice” (Antimicrob Agents Chemother, 2007).

The subject of data set [1] is Enterococcus. As to the kind of experiment: Overgrowth of vancomycin-resistant enterococci growth in mouse intestine assessed in stool 2 days after 5 days treatment relative to saline. Type of data set: functional, organism-based.
Data set [2] deals with Klebsiella pneumoniae. As to the kind of experiment: Inhibition of growth in Klebsiella pneumoniae P62 by mouse colonization study. The class given is functional.
In data set [3] the test system is Klebsiella pneumoniae. Kind of data set: Overgrowth of Klebsiella pneumonia growth in mouse intestine assessed in stool 2 days after 5 day treatment relative to saline. The class given is functional, organism-based.
For data set [4], the system named is Enterococcus. Kind of data set: Overgrowth of enterococci in mouse intestine assessed in stool after 3 days. Type of data set: functional, organism-based.
Data set [5] is described as follows: Drug level in mouse stool after 3 days. Type of data set: ADME, organism-based. The following applies: read-out: Drug uptake.
Data set [6] relates to Enterococcus. As to the kind of experiment: Inhibition of growth in Vancomycin-resistant Enterococci C68 by mouse colonization study. Type of data set: functional.
Data set [7] is described as follows: Drug level in mouse stool after 5 days. Type of data set: ADME, organism-based. The conditions noted are these: read-out: Drug uptake.
The subject of data set [8] is Bacteroides sp. Kind of data set: Inhibition of intestinal colonization of Bacteroides sp in mouse assessed in stool after 3 days relative to saline. The class given is functional, organism-based.
The test system of data set [9] is Enterococcus. Kind of data set: Overgrowth of vancomycin-resistant enterococci growth in mouse intestine assessed in stool 2 days after […] treatment relative to saline. The class given is functional, organism-based.

The structures appear in SMILES notation. ≈ marks a conversion by molar mass, not a printed value. Calls of active or inactive are those of the source. The calls are words filed in the database; no cut-off is given here. Where only a bound is given, the exact number is not on record here.

For the compound `C[C@@H](O)[C@H]1C(=O)N2C(C(=O)O)=C(S[C@@H]3CN[C@H](C(=O)Nc4cccc(C(=O)O)c4)C3)[C@H](C)[C@H]12` [ERTAPENEM], the outcome in data set [1] and in [3] was inactive. For the same compound, the MIC is below 0.25 µg/mL in data set [2] and above 1020 µg/mL in [6]. Further, the outcome in data set [4] and in data set [8] was Active. The concentration at 72 h in [5] is below 5000 ng/g. In data set [7], the concentration at 120 h turned out to be 10500 ng/g.
On to `CO/N=C(\C(=O)N[C@@H]1C(=O)N2C(C(=O)O)=C(CSc3nc(=O)c(=O)[nH]n3C)CS[C@H]12)c1csc(N)n1` [CEFTRIAXONE], for which the concentration at 72 h in data set [5] worked out at 93800 ng/g.
In the case of `CO/N=C(\C(=O)N[C@@H]1C(=O)N2C(C(=O)O)=C(CSc3nc(=O)c(O)nn3C)CS[C@H]12)c1csc(N)n1` [CEFTRIAXONE], the result in data set [1], in data set [3], in data set [4], in data set [9] and in data set [8] was Active. Besides, the results for the MIC in [2] and in data set [6] were 4 µg/mL (≈ 7.21 µM) and above 10000 µg/mL, respectively.

Usually MIC stands for the lowest concentration found to suppress growth. The low end stands for a more susceptible organism, the high end for a less susceptible organism.
